{
  "source": "patent US20260262643A1",
  "about": "“HERBICIDAL BENZOXAZINES” (FMC CORPORATION, priority 2022, published 2026)",
  "key": {"sedge, umbrella": {"tested_on": "sedge, umbrella", "test": "Test D flooded paddy test", "type": "in vivo, Cyperus difformis", "conditions": "250 g ai/ha, applied to paddy water, visual rating after 13 to 14 days, scale 0 to 100 (0 no effect, 100 complete control)", "in_short": "(§1)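 At the 2-leaf stage, floodwater 3 cm deep received the test compound; that depth persisted throughout. Plants scored visually 13 to 14 days on, 0 (no effect) to 100 (complete control), dash indicating no result.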"}, "green foxtail [1]": {"tested_on": "green foxtail", "test": "Test C postemergence", "type": "in vivo, Setaria viridis", "conditions": "10 days, 0 to 100 scale (0 no effect, 100 complete control)", "in_short": "(§2)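 Greenhouse herbicide screen, 10-day duration. Test chemicals in solvent/surfactant blend were sprayed onto soil at sowing (pre) or onto 2–10 cm seedlings at one to two leaves (post); injury scored visually against controls, 0 no effect to 100 complete control.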"}, "ryegrass, Italian [2]": {"tested_on": "ryegrass, Italian", "test": "Test C preemergence", "type": "in vivo, Lolium multiflorum", "in_short": "as §2"}, "wheat [3]": {"tested_on": "wheat", "test": "Test C preemergence", "type": "in vivo, Triticum aestivum", "in_short": "as §2"}, "kochia [4]": {"tested_on": "kochia", "test": "Test C preemergence", "type": "in vivo, Bassia scoparia", "in_short": "as §2"}, "pigweed, palmer [5]": {"tested_on": "pigweed, palmer", "test": "Test C postemergence", "type": "in vivo, Amaranthus palmeri", "conditions": "10 days, 0 to 100 scale (0 no effect, 100 complete control)", "in_short": "as §2"}, "rice": {"tested_on": "rice", "test": "Test D flooded paddy test", "type": "in vivo, Oryza sativa", "conditions": "250 g ai/ha, applied to paddy water, visual rating after 13 to 14 days, scale 0 to 100 (0 no effect, 100 complete control)", "in_short": "as §1"}, "oat, wild [6]": {"tested_on": "oat, wild", "test": "Test C postemergence", "type": "in vivo, Avena fatua", "conditions": "10 days, 0 to 100 scale (0 no effect, 100 complete control)", "in_short": "as §2"}, "blackgrass [7]": {"tested_on": "blackgrass", "test": "Test C postemergence", "type": "in vivo, Alopecurus myosuroides", "conditions": "10 days, 0 to 100 scale (0 no effect, 100 complete control)", "in_short": "as §2"}, "ryegrass, Italian [8]": {"tested_on": "ryegrass, Italian", "test": "Test C postemergence", "type": "in vivo, Lolium multiflorum", "conditions": "10 days, 0 to 100 scale (0 no effect, 100 complete control)", "in_short": "as §2"}, "barnyardgrass [9]": {"tested_on": "barnyardgrass", "test": "Test C postemergence", "type": "in vivo, Echinochloa crusgalli", "conditions": "10 days, 0 to 100 scale (0 no effect, 100 complete control)", "in_short": "as §2"}, "wheat [10]": {"tested_on": "wheat", "test": "Test C postemergence", "type": "in vivo, Triticum aestivum", "conditions": "10 days, 0 to 100 scale (0 no effect, 100 complete control)", "in_short": "as §2"}, "kochia [11]": {"tested_on": "kochia", "test": "Test C postemergence", "type": "in vivo, Bassia scoparia", "conditions": "10 days, 0 to 100 scale (0 no effect, 100 complete control)", "in_short": "as §2"}, "ducksalad": {"tested_on": "ducksalad", "test": "Test D flooded paddy test", "type": "in vivo, Heteranthera limosa", "conditions": "250 g ai/ha, applied to paddy water, visual rating after 13 to 14 days, scale 0 to 100 (0 no effect, 100 complete control)", "in_short": "as §1"}, "galium": {"tested_on": "galium", "test": "Test C postemergence", "type": "in vivo, Galium aparine", "conditions": "10 days, 0 to 100 scale (0 no effect, 100 complete control)", "in_short": "as §2"}, "soybean [12]": {"tested_on": "soybean", "test": "Test C postemergence", "type": "in vivo, Glycine max", "conditions": "10 days, 0 to 100 scale (0 no effect, 100 complete control)", "in_short": "as §2"}, "green foxtail [13]": {"tested_on": "green foxtail", "test": "Test C preemergence", "type": "in vivo, Setaria viridis", "in_short": "as §2"}, "horseweed": {"tested_on": "horseweed", "test": "Test C postemergence", "type": "in vivo, Erigeron canadensis", "conditions": "10 days, 0 to 100 scale (0 no effect, 100 complete control)", "in_short": "as §2"}, "ragweed [14]": {"tested_on": "ragweed", "test": "Test C postemergence", "type": "in vivo, Ambrosia artemisiifolia", "conditions": "10 days, 0 to 100 scale (0 no effect, 100 complete control)", "in_short": "as §2"}, "blackgrass [15]": {"tested_on": "blackgrass", "test": "Test C preemergence", "type": "in vivo, Alopecurus myosuroides", "in_short": "as §2"}, "barnyardgrass [16]": {"tested_on": "barnyardgrass", "test": "Test D flooded paddy test", "type": "in vivo, Echinochloa crus-galli", "conditions": "250 g ai/ha, applied to paddy water, visual rating after 13 to 14 days, scale 0 to 100 (0 no effect, 100 complete control)", "in_short": "as §1"}, "corn [17]": {"tested_on": "corn", "test": "Test C postemergence", "type": "in vivo, Zea mays", "conditions": "10 days, 0 to 100 scale (0 no effect, 100 complete control)", "in_short": "as §2"}, "corn [18]": {"tested_on": "corn", "test": "Test C preemergence", "type": "in vivo, Zea mays", "in_short": "as §2"}, "oat, wild [19]": {"tested_on": "oat, wild", "test": "Test C preemergence", "type": "in vivo, Avena fatua", "in_short": "as §2"}, "barnyardgrass [20]": {"tested_on": "barnyardgrass", "test": "Test C preemergence", "type": "in vivo, Echinochloa crusgalli", "in_short": "as §2"}, "ragweed [21]": {"tested_on": "ragweed", "test": "Test C preemergence", "type": "in vivo, Ambrosia artemisiifolia", "in_short": "as §2"}, "soybean [22]": {"tested_on": "soybean", "test": "Test C preemergence", "type": "in vivo, Glycine max", "in_short": "as §2"}, "pigweed, palmer [23]": {"tested_on": "pigweed, palmer", "test": "Test C preemergence", "type": "in vivo, Amaranthus palmeri", "in_short": "as §2"}, "[24]": {"conditions": "500 g ai/ha, preemergence, 0 to 100 scale (0 no effect, 100 complete control)"}, "[25]": {"conditions": "Preemergence, 125 g ai/ha, 0 to 100 scale, 0 no effect, 100 complete control"}},
  "data": [
    {"smiles": "Cc1ccc(-n2cnc(C(C)C)n2)cc1C(=O)N1CC(C(F)(F)F)Oc2c(Cl)cccc21", "note": "(stereo not shown) [Compound 354]", "values": [
      {"measurement": "Plant response rating, Sedge, Umbrella (Flood)", "setting": "sedge, umbrella", "value": 0},
      {"measurement": "Plant response rating, Foxtail, Green", "setting": "green foxtail [1]; 500 g ai/ha, postemergence", "value": 90},
      {"measurement": "Plant response rating, Foxtail, Green", "setting": "green foxtail [1]; Postemergence, 125 g ai/ha", "value": 40},
      {"measurement": "Ryegrass, Italian plant response rating", "setting": "ryegrass, Italian [2]; [24]", "value": 100},
      {"measurement": "Plant response rating, Ryegrass, Italian", "setting": "ryegrass, Italian [2]; [25]", "value": 90},
      {"measurement": "Wheat plant response rating", "setting": "wheat [3]; [24]", "value": 90},
      {"measurement": "Plant response rating, Wheat", "setting": "wheat [3]; [25]", "value": 30},
      {"measurement": "Kochia plant response rating", "setting": "kochia [4]; [24]", "value": 80},
      {"measurement": "Plant response rating, Kochia", "setting": "kochia [4]; [25]", "value": 0},
      {"measurement": "Plant response rating, Pigweed, Palmer", "setting": "pigweed, palmer [5]; 500 g ai/ha, postemergence", "value": 100},
      {"measurement": "Plant response rating, Pigweed, Palmer", "setting": "pigweed, palmer [5]; Postemergence, 125 g ai/ha", "value": 80},
      {"measurement": "Plant response rating, Rice (Flood)", "setting": "rice", "value": 0},
      {"measurement": "Plant response rating, Oat, Wild", "setting": "oat, wild [6]; 500 g ai/ha, postemergence", "value": 90},
      {"measurement": "Plant response rating, Oat, Wild", "setting": "oat, wild [6]; Postemergence, 125 g ai/ha", "value": 60},
      {"measurement": "Plant response rating, Blackgrass", "setting": "blackgrass [7]; 500 g ai/ha, postemergence", "value": 20},
      {"measurement": "Plant response rating, Blackgrass", "setting": "blackgrass [7]; Postemergence, 125 g ai/ha", "value": 0},
      {"measurement": "Plant response rating, Ryegrass, Italian", "setting": "ryegrass, Italian [8]; 500 g ai/ha, postemergence", "value": 70},
      {"measurement": "Plant response rating, Ryegrass, Italian", "setting": "ryegrass, Italian [8]; Postemergence, 125 g ai/ha", "value": 20},
      {"measurement": "Plant response rating, Barnyardgrass", "setting": "barnyardgrass [9]; 500 g ai/ha, postemergence", "value": 70},
      {"measurement": "Plant response rating, Barnyardgrass", "setting": "barnyardgrass [9]; Postemergence, 125 g ai/ha", "value": 30},
      {"measurement": "Plant response rating, Wheat", "setting": "wheat [10]; 500 g ai/ha, postemergence", "value": 60},
      {"measurement": "Plant response rating, Wheat", "setting": "wheat [10]; Postemergence, 125 g ai/ha", "value": 30},
      {"measurement": "Plant response rating, Kochia", "setting": "kochia [11]; 500 g ai/ha, postemergence", "value": 90},
      {"measurement": "Plant response rating, Kochia", "setting": "kochia [11]; Postemergence, 125 g ai/ha", "value": 80},
      {"measurement": "Plant response rating, Ducksalad (Flood)", "setting": "ducksalad", "value": 0},
      {"measurement": "Plant response rating, Galium", "setting": "galium; 500 g ai/ha, postemergence", "value": 100},
      {"measurement": "Plant response rating, Galium", "setting": "galium; Postemergence, 125 g ai/ha", "value": 100},
      {"measurement": "Plant response rating, Soybean", "setting": "soybean [12]; 500 g ai/ha, postemergence", "value": 100},
      {"measurement": "Plant response rating, Soybean", "setting": "soybean [12]; Postemergence, 125 g ai/ha", "value": 100},
      {"measurement": "Foxtail, Green plant response rating", "setting": "green foxtail [13]; [24]", "value": 100},
      {"measurement": "Plant response rating, Foxtail, Green", "setting": "green foxtail [13]; [25]", "value": 100},
      {"measurement": "Plant response rating, Horseweed", "setting": "horseweed; 500 g ai/ha, postemergence", "value": 80},
      {"measurement": "Plant response rating, Horseweed", "setting": "horseweed; Postemergence, 125 g ai/ha", "value": 30},
      {"measurement": "Plant response rating, Ragweed", "setting": "ragweed [14]; 500 g ai/ha, postemergence", "value": 70},
      {"measurement": "Plant response rating, Ragweed", "setting": "ragweed [14]; Postemergence, 125 g ai/ha", "value": 50},
      {"measurement": "Blackgrass plant response rating", "setting": "blackgrass [15]; [24]", "value": 90},
      {"measurement": "Plant response rating, Blackgrass", "setting": "blackgrass [15]; [25]", "value": 80},
      {"measurement": "Plant response rating, Barnyardgrass (Flood)", "setting": "barnyardgrass [16]", "value": 0},
      {"measurement": "Plant response rating, Corn", "setting": "corn [17]; 500 g ai/ha, postemergence", "value": 60},
      {"measurement": "Plant response rating, Corn", "setting": "corn [17]; Postemergence, 125 g ai/ha", "value": 20},
      {"measurement": "Corn plant response rating", "setting": "corn [18]; [24]", "value": 40},
      {"measurement": "Plant response rating, Corn", "setting": "corn [18]; [25]", "value": 20},
      {"measurement": "Oat, Wild plant response rating", "setting": "oat, wild [19]; [24]", "value": 90},
      {"measurement": "Plant response rating, Oat, Wild", "setting": "oat, wild [19]; [25]", "value": 80},
      {"measurement": "Barnyardgrass plant response rating", "setting": "barnyardgrass [20]; [24]", "value": 100},
      {"measurement": "Plant response rating, Barnyardgrass", "setting": "barnyardgrass [20]; [25]", "value": 90},
      {"measurement": "Ragweed plant response rating", "setting": "ragweed [21]; [24]", "value": 100},
      {"measurement": "Plant response rating, Ragweed", "setting": "ragweed [21]; [25]", "value": 10},
      {"measurement": "Soybean plant response rating", "setting": "soybean [22]; [24]", "value": 100},
      {"measurement": "Plant response rating, Soybean", "setting": "soybean [22]; [25]", "value": 50},
      {"measurement": "Pigweed, Palmer plant response rating", "setting": "pigweed, palmer [23]; [24]", "value": 100},
      {"measurement": "Plant response rating, Pigweed, Palmer", "setting": "pigweed, palmer [23]; [25]", "value": 100}
    ]}
  ]
}
